Results from PMC8954350, “Non-Canonical Cannabinoid Receptors with Distinct Binding and Signaling Properties in Prostate and Other Cancer Cell Types Mediate Cell Death” (International Journal of Molecular Sciences, 2022).
Entries after “also recorded” stand apart in the source; their conditions may differ. Where two headings read alike, the source gives them in different places.

Key:
[1] = test system: CBRs expressed in PC-3 membranes; assay: [^3H]WIN-55,212-2 competitive binding screen, PC-3 membranes; set-up: species or system human
Method: (§1) The assay was conducted as previously detailed. […] All binding reactions were conducted in triplicate, in a final volume of 1 mL, and, following mixing, were incubated for 20 min in a 37 °C water bath to achieve equilibrium. After incubation, reactions were terminated by rapid vacuum filtration through Whatman GF/B glass fiber filters (Brandel; Gaithersburg, MD, USA), followed by three washes of 4 mls of ice-cold filtration buffer (50 mM Tris, pH 7.4, and 0.05% bovine serum albumin). Samples were punched out from filter papers into scintillation vials, to which 4 mls of ScintiverseTM-BDR cocktail scintillation fluid (Fisher Scientific; Hampton, NH, USA) was added. Filters were incubated at room temperature for 24 h in scintillation fluid, vortexed, and radioactivity (measured as DPMs) was quantified via a liquid scintillation spectrophotometer (Tri Carb 2100 TR Liquid Scintillation Analyzer, Packard Instruments, Meriden, CT, USA).
(§2) These experiments were conducted to screen well-characterized cannabinoid ligands with high affinity for canonical CB1 and/or CB2Rs for binding to CBRs expressed in prostate cancer cells lines, as detailed in [33]. […] All binding reactions were conducted in triplicate, in a final volume of 1 mL, and, following mixing, were incubated for 20 min in a 37 °C water bath to achieve equilibrium. After incubation, reactions were terminated by rapid vacuum filtration and processed for radioactivity, as detailed in Section 4.5.1.

[2] = test system: CBRs expressed in DU-145 membranes; format: binding, human
Method: as §1, §2

[3] = test system: CBRs expressed in PC-3 membranes; assay: [^35S]GTPγS binding, PC-3 membranes; format: biochemical, human; conditions: 10 μM
Method: [^35S]GTPγS binding experiments were conducted to examine G protein modulation by cannabinoids in prostate cancer cell lines DU-145 and PC-3, as detailed previously. Briefly, CHO-hCB2 (50 μg), PC3 (100 μg), or DU-145 (100 μg) membrane homogenates were incubated with a single receptor-saturating concentration (10^−5 M) of cannabinoid ligands to be examined and 0.1 nM [^35S]GTPγS in incubation buffer (20 mM HEPES buffer, pH 7.4, 10 μM GDP, 100 mM NaCl, 0.1% bovine serum albumin, and 10 mM MgCl2). Non-specific binding was defined as radioactivity remaining in the presence of 10 μM of non-radioactive GTPγS and subtracted from total binding to determine specific [^35S]GTPγS binding. All binding reactions were conducted in triplicate, in a final volume of 1 mL, and, following mixing, were incubated for 30 min at 30 °C. After incubation, reactions were terminated by rapid vacuum filtration through Whatman GF/B glass fiber filters (Brandel; Gaithersburg, MD, USA), followed by three washes of 4 mls of ice-cold filtration buffer (50 mM Tris, pH 7.4, and 0.05% bovine serum albumin). Samples were punched out from filter papers into scintillation vials, to which 4 mls of ScintiverseTM-BDR cocktail scintillation fluid (Fisher Scientific; Hampton, NH, USA) was added. Filters were incubated at room temperature for 24 h in scintillation fluid, vortexed, and radioactivity (measured as DPMs) was determined via a liquid scintillation spectrophotometer (Tri Carb 2100 TR Liquid Scintillation Analyzer, Packard Instruments, Meriden, CT, USA).

[4] = test system: CBRs expressed in DU-145 membranes; format: biochemical, human; conditions: 10 μM
Method: Non-specific binding was defined as radioactivity remaining in the presence of 10 μM of non-radioactive GTPγS and subtracted from total binding to determine specific [^35S]GTPγS binding. All binding reactions were conducted in triplicate, in a final volume of 1 mL, and, following mixing, were incubated for 30 min at 30 °C. After incubation, reactions were terminated by rapid vacuum filtration through Whatman GF/B glass fiber filters (Brandel; Gaithersburg, MD, USA), followed by three washes of 4 mls of ice-cold filtration buffer (50 mM Tris, pH 7.4, and 0.05% bovine serum albumin). Samples were punched out from filter papers into scintillation vials, to which 4 mls of ScintiverseTM-BDR cocktail scintillation fluid (Fisher Scientific; Hampton, NH, USA) was added. Filters were incubated at room temperature for 24 h in scintillation fluid, vortexed, and radioactivity (measured as DPMs) was determined via a liquid scintillation spectrophotometer (Tri Carb 2100 TR Liquid Scintillation Analyzer, Packard Instruments, Meriden, CT, USA).

[5] = test system: CBRs expressed in PC-3 cells; format: cell-based, human
Method: These studies were conducted to determine the effect of chronic exposure of PC-3 and DU-145 cells to cannabinoid ligands with high affinity for non-canonical CBRs on receptor expression. PC-3 or DU-145 cells were seeded into T25 flasks at a density of 1.6 × 10^6 cells in normal medium and cultured at 37 °C with 5% CO2 for 24 h. Following overnight seeding, culture media was aspirated and replaced with serum-free medium containing vehicle or a receptor-saturating concentration (10 μM) of each cannabinoid ligand to be tested. Cells were subsequently cultured at 37 °C with 5% CO2 for an additional 48 h. […] Cells were then centrifuged at 1200 rpm for 10 min, and pellets were stored in −80 °C until future use.
All binding reactions were conducted in triplicate, in a final volume of 1 mL, and following mixing were incubated for 20 min in a 37 °C water bath to achieve equilibrium. After incubation, reactions were terminated by rapid vacuum filtration through Whatman GF/B glass fiber filters (Brandel; Gaithersburg, MD, USA), followed by three washes of 4 mls of ice-cold filtration buffer (50 mM Tris, pH 7.4, and 0.05% bovine serum albumin). Samples were punched out from filter papers into scintillation vials, to which 4 mls of ScintiverseTM-BDR cocktail scintillation fluid (Fisher Scientific; Hampton, NH, USA) was added. Filters were incubated at room temperature for 24 h in scintillation fluid, vortexed, and radioactivity (measured as DPMs) was quantified via a liquid scintillation spectrophotometer (Tri Carb 2100 TR Liquid Scintillation Analyzer, Packard Instruments, Meriden, CT, USA).

DU-145 cells = assay: LDH cytotoxicity, DU-145 cells; format: cell-based, human; conditions: 24 h; for LDH release: 10 μM; for increase in LDH release: 50 μM
Method: DU-145 cells were seeded at a density of 130 × 10^3 cells/well in 6-well plates and maintained in an incubator at 37 °C with 5% CO2 for 24 h. […] Treated cells were incubated for an additional 24 h, followed by quantification of LDH release. LDH released from damaged or dying cells oxidizes lactate to produce NADH which then reacts with a water-soluble tetrazolium salt (WST) reagent to produce a yellow-colored product. The intensity of the yellow-colored product was detected with an OD reading at 450 nm (quantified by a BioTek microplate reader interfaced with SoftMax Pro 5.4.5 software; Winooski, VT, USA) and was directly proportional to the amount of LDH released. Percent cytotoxicity was calculated according to the manufacturer’s protocol as the following: % Cytotoxicity=OD450 Supernatant/Supernatant+Lysate

[6] = 1 μM ligand, 1 nM radioligand, PC-3 membranes

Row | SMILES | displacement of [^3H]WIN-55,212-2 [1] | displacement of [^3H]WIN-55,212-2 [2] | modulation of [^35S]GTPγS binding [3] | modulation of [^35S]GTPγS binding [4] | CBR downregulation (reduction of [^3H]WIN-55,212-2 (1 nM) binding) [5] | LDH release (DU-145 cells) | increase in LDH release (DU-145 cells) | displacement of [^3H]WIN-55,212-2 [1, 6] | displacement of [^3H]WIN-55,212-2 ([2]; 1 μM ligand, 1 nM radioligand, DU-145 membranes) | decrease in [^35S]GTPγS binding below basal levels [4] [%] | CBR downregulation (reduction of [^3H]WIN-55,212-2 (1 nM) binding) ([5]; PC-3 cells, 10 μM, 48 h, vs vehicle) [%] | attenuation of GW-405833 (50 μM)-induced LDH release (DU-145 cells; co-incubation with 10 μM ligand)
1 | COc1ccc2c(c1)c(CCN1CCOCC1)c(C)n2C(=O)c1cccc(Cl)c1Cl [GW-405833] | greater than 50% | greater than 50% | neither the agonist at canonical CB1/CB2 receptors WIN-55-212-2 (10 μM) nor the CB2-selective agonist GW-405-833 (10 μM) increased [^35S]GTPγS binding | neither the agonist at canonical CB1/CB2 receptors WIN-55-212-2 (10 μM) nor the CB2-selective agonist GW-405-833 (10 μM) increased [^35S]GTPγS binding | 68.33 ± 3.8% | No significant effects | 74.2 ± 4.5% | – | – | – | – | –
2 | Cc1c(C(=O)c2cccc3ccccc23)c2cccc3c2n1[C@H](CN1CCOCC1)CO3 [WIN-55,212-2] | – | – | neither the agonist at canonical CB1/CB2 receptors WIN-55-212-2 (10 μM) nor the CB2-selective agonist GW-405-833 (10 μM) increased [^35S]GTPγS binding | neither the agonist at canonical CB1/CB2 receptors WIN-55-212-2 (10 μM) nor the CB2-selective agonist GW-405-833 (10 μM) increased [^35S]GTPγS binding | – | neither low (10 μM) nor high (50 μM) concentrations of WIN-55,212-2, AM-251 or AM-630 altered LDH release | neither low (10 μM) nor high (50 μM) concentrations of WIN-55,212-2, AM-251 or AM-630 altered LDH release | significantly displaced; also recorded: complete displacement | significantly displaced; also recorded: complete displacement | 15.3 ± 1.6 | 84.33 ± 5.2 | –
3 | Cc1c(C(=O)NN2CCCCC2)nn(-c2ccc(Cl)cc2Cl)c1-c1ccc(Cl)cc1 [rimonabant] | – | greater than 50% | did reduce [^35S]GTPγS binding below basal levels | did reduce [^35S]GTPγS binding below basal levels | non-significant trend towards decreased receptor expression | No significant effects | 16.5 ± 3.5% | greater than 50% | – | – | – | almost completely blocked GW-405833 induced LDH release
